Test results taken from patent US6379651B1, “Oral-topical dosage forms for delivering antibacterials/antibiotics to oral cavity to eradicate H. pylori as a concomitant treatment for peptic ulcers and other gastro-intestinal diseases” (priority 1995, dated 2002).

Legend:
[1] = in vivo; cited from earlier work
Campylobacter rectus = assay: In vitro MIC, Campylobacter rectus; format: cell-based
Treponema denticola = assay: In vitro MIC, Treponema denticola; format: cell-based
Helicobacter pylori = assay: In vitro MIC, Helicobacter pylori; format: cell-based
H. pylori [2] = conditions: in vivo; cited from earlier work
[3] = compared with placebo, cimetidine and ranitidine; cited from earlier work
H. pylori [4] = conditions: cited from earlier work
[5] = Freeze-injured skin graft model; format: in vivo; conditions: for wound healing rates compared to placebo: Doses of 10 to 1000 mcg/mL; for wound healing in cryoinjured grafts: in vivo
[6] = in vivo; cited from earlier work; remark: listed apart in the source
[7] = Diabetic mouse wound healing model; format: in vivo; conditions: formulations of 10 mcg/ml to 1,000 mcg/ml
Method: Further, wound healing potential of the above bismuth compounds is evaluated using a diabetic mouse wound healing model (Matuszewska et al., Pharmaceutical Research 11(1):65-71 (1994), incorporated herein by reference).

[8] = Method: Artificial saliva was used (Table 9).
Artificial saliva is used (Table 9).
The test saliva is prepared by dissolving 0.500 g of the antibiotic or antibacterial agent in a 100 mL of the above artificial saliva. […] The denture materials that are exposed to artificial saliva containing the agent or placebo are evaluated.

rat mesentery culture = assay: In vitro rat mesentery culture wound closure model; format: cell-based; conditions: for concentrations of growth factors EGF and FGF: 10 mcg/mL to 1,000 mcg/mL in medium, 2% fetal calf serum; for wound closure: 10 mcg/mL to 1,000 mcg/mL, 24-hour, 48-hour and 72-hour, compared to the placebo
From the text: This tissue culture model is useful for gaining insights into growth factor interactions and wound healing.

| Molecule | secretion in the saliva [1] | minimum effective concentrations (MICs) (Campylobacter rectus) [µg/mL] | minimum effective concentrations (MICs) (Treponema denticola) [µg/mL] | minimum effective concentrations (MICs) (Helicobacter pylori) [µg/mL] | eradication rate for H. pylori (H. pylori [2]) [%] | relapse rates of duodenal ulcers [3] | minimum inhibitory concentration (MIC) against H. pylori (H. pylori [4]) [mg/L] | MIC against H. pylori, range (H. pylori [4]; range) [mg/L] | wound healing rates compared to placebo [5] | wound healing in cryoinjured grafts [5] | steady-state blood levels unlikely to cause any neurotoxicity [6] | absorption from the GI [1] | wound healing compared to placebo [7] | staining, discoloration or changes in texture of natural tooth and denture materials [8] | concentrations of growth factors EGF and FGF (rat mesentery culture) | wound closure (rat mesentery culture) |
| --- | --- | --- | --- | --- | --- | --- | --- | --- | --- | --- | --- | --- | --- | --- | --- | --- |
| CC[C@H]1OC(=O)[C@H](C)[C@@H](O[C@H]2C[C@@](C)(OC)[C@@H](O)[C@H](C)O2)[C@H](C)[C@@H](O[C@@H]2O[C@H](C)C[C@H](N(C)C)[C@H]2O)[C@](C)(OC)C[C@@H](C)C(=O)[C@H](C)[C@@H](O)[C@]1(C)O [Clarithromycin] | secreted in the saliva | – | – | – | – | – | – | – | – | – | – | – | – | – | – | – |
| beta-D-fructofuranosyl-oktakis (hydrogen sulfate) bismuth complex [Bismuth Sucrose Sulfate] | – | >256 | 32 | 16 | – | – | – | – | – | – | – | – | – | – | – | – |
| Cc1ncc([N+](=O)[O-])n1CCO [metronidazole] | – | – | – | – | 5 | – | – | – | – | – | – | – | – | – | – | – |
| colloidal bismuth subcitrate [CBS] | produces no salivary concentrations | 256 | 32 | 2 | – | significantly lower relapse rates | 8 | 4 to 32 | significant increase | stimulates wound healing in cryoinjured grafts in a dose-related fashion | 50-100 | not absorbed significantly | heal faster | did not cause any staining, discoloration, or changes in texture | Significantly higher | significantly faster wound closure rate and complete closure |
| L-dihydro ascorbyl-tetrakis (hydrogen sulfate) bismuth complex [Bismuth Ascorbyl Sulfate] | – | 256 | 16 | 8 | – | – | – | – | significant increase | stimulates wound healing in cryoinjured grafts in a dose-related fashion | – | – | heal faster | – | Significantly higher | significantly faster wound closure rate and complete closure |
